Km and stoichiometry N data for three compounds are collected here from publication PMC9708767, “Synthesis of Polymer Precursor 12-Oxododecenoic Acid Utilizing Recombinant Papaya Hydroperoxide Lyase in an Enzyme Cascade” (Applied Biochemistry and Biotechnology, 2022).

Test [1] has as its target HPLCP-N (Carica papaya, UniProt Z9RAA0G2V7). Nature of the test: photometric, decrease at […] nm, nonlinear regression. To be noted: 50 mM potassium phosphate pH 6, 1 M NaCl, 22 °C; 5-100 µM substrate; affinity-enriched enzyme. The class given is biochemical.
Test [2] concerns the target N-terminally truncated hydroperoxide lyase from Carica papaya (HPL_(CP-N)) (Carica papaya). The experiment in a line: SEC; Superdex 200 Increase 10/300; 50 mM potassium phosphate buffer pH 7 with 0.5 M NaCl and 0.1% Triton X-100; calibrated with gel filtration markers of 29,000 to 700,000 Da; calculated mass compared with the predicted monomer mass.

Sequence of HPLCP-N (Z9RAA0G2V7 36-496 limits assumed): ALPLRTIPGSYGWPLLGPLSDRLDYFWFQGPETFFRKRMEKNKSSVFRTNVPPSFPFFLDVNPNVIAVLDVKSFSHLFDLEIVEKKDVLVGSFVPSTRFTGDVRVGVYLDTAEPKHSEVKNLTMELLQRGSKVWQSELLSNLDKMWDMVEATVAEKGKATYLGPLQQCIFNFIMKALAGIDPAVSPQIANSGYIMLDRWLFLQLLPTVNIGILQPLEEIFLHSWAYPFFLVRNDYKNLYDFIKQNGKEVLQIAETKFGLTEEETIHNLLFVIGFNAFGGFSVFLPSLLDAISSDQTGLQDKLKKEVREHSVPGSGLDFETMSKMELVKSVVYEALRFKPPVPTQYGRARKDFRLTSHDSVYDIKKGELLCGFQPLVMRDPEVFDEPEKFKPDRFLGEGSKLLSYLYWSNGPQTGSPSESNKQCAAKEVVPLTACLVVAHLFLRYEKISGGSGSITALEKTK

The term Km denotes the concentration of substrate that gives half-maximal velocity. As to `CCCCC[C@@H](/C=C/C=C\CCCCCCCC(=O)O)OO` [13S-HPODE], in test [1], the Km is 140 ± 30 µM.

Usually stoichiometry N stands for the number of molecules, sites or subunits per partner or assembly. In the case of “N-terminally truncated hydroperoxide lyase from Carica papaya (HPL_(CP-N)) (enzyme)”, the stoichiometry N in test [2] was 4.

For the compound `CC/C=C\C[C@@H](/C=C/C=C\CCCCCCCC(=O)O)OO` [13S-HPOTE], the Km in test [1] worked out at 150 ± 40 µM.
